From paper PMC10202359, “Nicotinamide N-methyltransferase (NNMT) regulates the glucocorticoid signaling pathway during the early phase of adipogenesis” (Scientific Reports, 2023)
One block for each compound: values may come before it.

How the values were obtained:
[1] = test system: Nnmt expression in 3T3-L1 cells; test: Nnmt mRNA by real-time PCR in 3T3-L1; format: cell-based, mouse; details: post-confluent 3T3-L1 treated 48 h with individual DIM components, vs unstimulated cells
Procedure: 3T3-L1 Mouse Embryonic Fibroblasts were purchased from American Type Culture Collection (ATCC CL-173). The cells were propagated and maintained in Dulbecco’s modified Eagle’s medium (DMEM, Gibco) supplemented with 10% calf serum (FCS) at 37 °C in 5% CO2 atmosphere. Subconfluents cells were expanded and utilized for the subsequent experiments at the passages 3–6. To induce differentiation, 2-day post-confluent 3T3-L1 pre-adipocytes were cultured for 48 h with DIM (DMEM supplemented with 10% fetal bovine serum (FBS), 1.0 µM Dexamethasone (G. Biosciences), […] Insulin (Sigma) and 0.5 mM IBMX (Sigma). Two days after induction the DIM medium was removed and the cells were maintained in DMED supplemented with 10% FBS and […] Insulin, which was replaced every 48 h, until the cells became fully differentiated (8–10 days after induction). C3H10T1/2 cells were purchased from American Type Culture Collection (ATCC, clone 8, CCL-226, were grown and induced to differentiate following the same protocol, with cell cultures < 3 passages. […] Real-time PCRs were performed using SYBR Green PCR Master Mix (Applied Biosystems) with an ABI PRISM 7900HT Sequence Detection System (Applied Biosystems). RT-PCR data were normalized to GAPDH and expressed relative to control (ddCt method).

SET1b Complex = target: T1, SET1b Complex (Homo sapiens, UniProt Q9UPS6); test: Methyltransferase Hot Spot radioisotope assay, SET1b Complex; format: biochemical; details: 10-dose, threefold dilution; CC-410 from 300 μM, control from 100 μM; substrate Core Histone; read-out: IC50* (M) SET1b Complex
T1 construct: purchased Reaction Biology Corporation
Procedure: (§1) CC-410 was screened in biochemical assays for activity against a panel of 11 methyltransferases (MT) by using the radioisotope (3H-AdoMet) based MT Hot Spot Assay. All the assays were performed by Reaction Biology Corporation (RBC, Malven, PA, USA). Briefly CC-410 was incubated with the selected MTs, corresponding substrates, and radiolabeled SAM (S-Adenosyl-L-[methyl-3 H]methionine). The specific MTs assessed, and the corresponding substrates are as follows: DNMT1- Poly dl-dC, DNMT3a- Lambda DNA, DNMT3b- Lambda DNA, DOT1L- Nucleosomes, EZH2 Complex- Core Histone, METTL21A- HSPA8-[CTD], NRMT1- RCC1, PRMT3- Histone H4, PRMT5/MEP50- Histone H2A, SET1b -Core Histone Complex and SMYD2- Nucleosomes. Reaction mixtures were incubated and spotted onto filter papers, which were then washed to remove unreacted SAM, leaving the bound radiolabeled product. Detection of the radiolabeled, methylated product was performed via a nanoliter-scale radioisotope filter binding platform. […] For each assay, control compounds were included as positive controls for enzyme function and assay reproducibility. […] IC50 was calculated by non-linear least square fitting dose–response curve.

NRMT1 = target: T2, NRMT1 (Homo sapiens, UniProt Q9BV86); test: Methyltransferase Hot Spot radioisotope assay, NRMT1; format: biochemical; details: 10-dose, threefold dilution; CC-410 from 300 μM, control from 100 μM; substrate RCC1
T2 sequence (Q9BV86 1-223): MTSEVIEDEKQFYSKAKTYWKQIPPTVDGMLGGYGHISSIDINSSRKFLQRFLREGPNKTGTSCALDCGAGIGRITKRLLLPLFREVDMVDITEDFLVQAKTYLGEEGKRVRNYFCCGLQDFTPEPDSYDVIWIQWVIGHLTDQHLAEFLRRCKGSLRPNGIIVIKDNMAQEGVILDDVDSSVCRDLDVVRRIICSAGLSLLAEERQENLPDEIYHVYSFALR
Procedure: as §1

PRMT3 = PRMT3 (Homo sapiens, UniProt O60678); test: Methyltransferase Hot Spot radioisotope assay, PRMT3; format: biochemical; details: 10-dose, threefold dilution; CC-410 from 300 μM, control from 100 μM; substrate Histone H4; read-out: IC50* (M) PRMT3
Procedure: as §1, with “The specific MTs assessed, and the corresponding substrates are as follows: DNMT1- Poly dl-dC, DNMT3a- Lambda DNA, DNMT3b- Lambda DNA, DOT1L- Nucleosomes, EZH2 Complex- Core Histone, METTL21A- HSPA8-[CTD], NRMT1- RCC1, PRMT3- Histone H4, PRMT5/MEP50- Histone H2A, SET1b -Core Histone Complex and SMYD2- Nucleosomes.” left out

DNMT3a = target: T3, DNMT3a (Homo sapiens, UniProt Q9Y6K1); test: Methyltransferase Hot Spot radioisotope assay, DNMT3a; format: biochemical
T3 construct: purchased Reaction Biology Corporation
Procedure: as §1

DNMT3b = target: T4, DNMT3b (Homo sapiens, UniProt Q9UBC3); test: Methyltransferase Hot Spot radioisotope assay, DNMT3b; format: biochemical
T4 construct: purchased Reaction Biology Corporation
Procedure: as §1

METTL21A = METTL21A (Homo sapiens, UniProt Q8WXB1); test: Methyltransferase Hot Spot radioisotope assay, METTL21A; format: biochemical; details: 10-dose, threefold dilution; CC-410 from 300 μM, control from 100 μM; substrate HSPA8-[CTD]
Procedure: as §1, with “The specific MTs assessed, and the corresponding substrates are as follows: DNMT1- Poly dl-dC, DNMT3a- Lambda DNA, DNMT3b- Lambda DNA, DOT1L- Nucleosomes, EZH2 Complex- Core Histone, METTL21A- HSPA8-[CTD], NRMT1- RCC1, PRMT3- Histone H4, PRMT5/MEP50- Histone H2A, SET1b -Core Histone Complex and SMYD2- Nucleosomes.” left out

Sequence of PRMT3 (O60678 whole entry, species assumed): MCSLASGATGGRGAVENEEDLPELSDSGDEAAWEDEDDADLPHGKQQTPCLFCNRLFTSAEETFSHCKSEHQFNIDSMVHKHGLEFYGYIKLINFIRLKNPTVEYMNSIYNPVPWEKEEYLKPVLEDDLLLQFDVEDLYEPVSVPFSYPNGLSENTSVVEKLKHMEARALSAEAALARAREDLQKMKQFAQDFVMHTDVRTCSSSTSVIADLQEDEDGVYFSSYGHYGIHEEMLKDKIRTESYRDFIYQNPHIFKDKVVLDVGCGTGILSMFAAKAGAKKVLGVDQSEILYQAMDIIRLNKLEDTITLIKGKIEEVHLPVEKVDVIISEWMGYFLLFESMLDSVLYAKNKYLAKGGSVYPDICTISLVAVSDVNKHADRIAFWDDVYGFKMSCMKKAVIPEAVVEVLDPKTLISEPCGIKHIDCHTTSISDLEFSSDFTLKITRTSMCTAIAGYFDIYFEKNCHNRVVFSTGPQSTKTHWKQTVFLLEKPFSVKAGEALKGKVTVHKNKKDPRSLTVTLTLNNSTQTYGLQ
T3 sequence (Q9Y6K1 whole entry, looked up, species assumed): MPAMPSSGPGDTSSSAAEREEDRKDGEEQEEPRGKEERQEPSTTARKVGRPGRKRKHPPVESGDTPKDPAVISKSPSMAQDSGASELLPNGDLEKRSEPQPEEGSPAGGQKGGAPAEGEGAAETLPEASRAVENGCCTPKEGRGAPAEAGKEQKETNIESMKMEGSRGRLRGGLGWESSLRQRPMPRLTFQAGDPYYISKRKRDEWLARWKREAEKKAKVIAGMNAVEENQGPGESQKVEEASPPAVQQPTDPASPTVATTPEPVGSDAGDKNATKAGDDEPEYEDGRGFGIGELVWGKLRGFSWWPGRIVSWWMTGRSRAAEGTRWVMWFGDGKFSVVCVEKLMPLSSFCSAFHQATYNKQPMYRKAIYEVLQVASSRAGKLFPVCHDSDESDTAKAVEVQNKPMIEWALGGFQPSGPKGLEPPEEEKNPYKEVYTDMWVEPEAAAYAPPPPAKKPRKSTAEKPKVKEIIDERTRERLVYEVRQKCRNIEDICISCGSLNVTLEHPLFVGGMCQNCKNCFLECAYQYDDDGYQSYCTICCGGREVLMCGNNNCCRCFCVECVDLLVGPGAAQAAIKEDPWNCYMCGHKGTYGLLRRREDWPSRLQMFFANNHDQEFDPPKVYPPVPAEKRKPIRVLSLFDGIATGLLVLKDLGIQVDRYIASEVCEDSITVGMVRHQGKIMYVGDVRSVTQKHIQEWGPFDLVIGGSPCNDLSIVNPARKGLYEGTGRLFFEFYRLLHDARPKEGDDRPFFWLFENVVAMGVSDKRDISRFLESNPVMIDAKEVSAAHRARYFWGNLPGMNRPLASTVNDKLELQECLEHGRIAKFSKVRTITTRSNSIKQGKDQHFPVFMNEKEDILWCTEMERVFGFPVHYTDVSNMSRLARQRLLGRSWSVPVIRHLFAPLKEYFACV
Sequence of METTL21A (Q8WXB1 whole entry, species assumed): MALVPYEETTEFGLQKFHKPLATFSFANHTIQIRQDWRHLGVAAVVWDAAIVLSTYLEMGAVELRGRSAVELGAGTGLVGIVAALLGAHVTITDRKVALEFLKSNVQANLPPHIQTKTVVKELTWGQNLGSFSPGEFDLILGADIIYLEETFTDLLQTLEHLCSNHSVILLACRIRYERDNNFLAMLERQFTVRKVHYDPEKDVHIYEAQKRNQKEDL

Compound: CC(C)Cn1c(=O)n(C)c(=O)c2[nH]cnc21 [IBMX, 3-isobutyl-1-methylxanthine]
Nnmt expression (mRNA, RT-PCR) [1]: neither insulin nor IBMX impacted Nnmt expression significantly

Compound: C[C@@H]1C[C@H]2[C@@H]3CCC4=CC(=O)C=C[C@]4(C)[C@@]3(F)[C@@H](O)C[C@]2(C)[C@@]1(O)C(=O)CO [DEX, dexamethasone]
Nnmt expression (mRNA, RT-PCR) [1]: induction comparable with that of the whole cocktail

IC50 (SET1b Complex): 2e-05 M
IC50 (NRMT1): 1680 nM
IC50 (PRMT3): 3.88e-06 M
IC50 (DNMT3a): 511 nM
IC50 (DNMT3b): 259 nM
IC50 (METTL21A): 76.1 µM
Compound: Nc1ncnc2c1ncn2[C@@H]1O[C@H](CSCC[C@H](N)C(=O)O)[C@@H](O)[C@H]1O [SAH, S-(5′-Adenosyl)-L-homocysteine, reference compound]

Compound: insulin: component of the differentiation-inducing medium (DIM)
Nnmt expression (mRNA, RT-PCR) [1]: neither insulin nor IBMX impacted Nnmt expression significantly
